Patent publication US20220071970A1, “QUINUCLIDINE-3-ONE DERIVATIVES AND THEIR USE IN CANCER TREATMENT” (Aprea Therapeutics AB, priority 2018, published 2022)
Read-outs that look alike come from different tables or passages of the source.

What was measured:
[1] = test system: SaOS-2 His273 mtp53 human osteosarcoma cell line; test: In vitro efficacy study using the SaOS-2 His273 protocol (CellTiter-Glo viability, 72 h); type: cell-based; settings: read-out: SaOS-2 His273 IC50
Procedure: SaOS-2 His273 mtp53 is a human osteosarcoma cell line which has been genetically engineered at OnkPat CCK to express His273 mutated p53.
3000 cells/well (50 μl) were seeded into masked (black or white with clear bottom) 96-well cell culture plates using Iscove's Modified Dulbecco's Medium supplemented with 10% heat inactivated (56° C. for 60 min) fetal calf serum. The plates were then incubated for 4 hours, allowing the cells to attach. The test compounds were dissolved in DMSO or water to a concentration of 0.01 M and then further diluted to desired concentrations using the cell medium. 50 μl of freshly diluted test compound from fresh stock was added to the wells. The plates were then incubated for 72 hours.
For viability detection, CellTiter-Glo® Luminescent Cell Viability Assay (CTG) was used. CTG is a homogeneous “add-mix-measure” format method of determining the number of viable cells in culture based on quantitation of the ATP present, an indicator of metabolically active cells. The luminescence was measured using the PerkinElmer Victorx4 instrument.
The average of the signal values for the untreated cells was calculated for each plate. The % of growth suppression was calculated as:
100−((Signal sample/Signal untreated cells)×100).
The results of the SaOs-2 His273 analyses were expressed as IC50 values, i.e. concentration that suppresses growth of at least 50% of the cells. The IC50 values of various compounds according to the invention and of some comparative compounds are shown in Table 1, Table 2, Table 3 and Table 4.

[2] = Stability study in pH 4 buffer at 25° C.; type: physicochemical; settings: for % Parent remaining at 48 h: LCMS, normalized to internal standard; for half-life at 0.2 mg/mL: pH 4 acetate buffer
Procedure: Chemical stability at low pH was investigated for selected compounds. Compounds that are highly unstable may not be suitable as drug candidates, for example due to potential difficulties in achieving and maintaining a stable and therapeutically effective formulation. For instance, compounds intended for oral administration must be chemically stable at the low pH observed in the stomach in order for this to be an acceptable route.
A pH 4 buffer was prepared by mixing 4.1 mL of 0.2 M acetic acid (aq.) with 0.9 mL of a 0.2 M sodium acetate (aq.) and then diluting to 10 mL with distilled water. The pH was determined by pH meter to 4.04.
Benzylpiperidine-4-ol was used as internal standard. A 1 mg/mL stock solution was prepared by dissolving 3.5 mg benzylpiperidine-4-ol in 3.5 mL of water. 500 μL of the stock solution were added to pH 4 buffer (5 mL) and the mixture was shaken.
A 1 mg/mL solution in acetonitrile was prepared for each test compound. Two drops of water were added to ca. 1 mL of acetonitrile in order to completely dissolve Example 2.
To 400 μL of pH 4 buffer with internal standard were added 100 μL of 1 mg/mL test compound solution. The solutions were stored at 25° C. and analyzed by LCMS directly and at different time points up to 48 hours. The [M+H]^+ ion for parent compound (test compound) and the internal standard (m/z 192) were extracted and integrated. The area for the parent compound was normalized to the area of the internal standard for each time point.
The half-life was calculated based on 1st order kinetics (t %=ln2/k). The rate constant (k) was obtained by plotting In[normalized peak area] against time.
Results for half-life and percent parent compound remaining at 48 h for selected examples and a comparative example are shown in Table 5.

[3] = SAOS-2, growth suppression, 72 hours incubation, CellTiter-Glo

Row | Structure (SMILES) | IC50 ([1]; SAOS-2, 72 h) [µM] | other results
1 | O=C1C2CCN(CC2)C1Cc1cnn[nH]1 (racemic) [Comparative example 5, 2-((1H-1,2,3-triazol-5-yl)methyl)quinuclidin-3-one, reference compound] | > 40 | 
2 | CCN(CC1C(=O)C2CCN1CC2)C(=O)C(Cl)(Cl)Cl (racemic) [Example 1, 2,2,2-trichloro-N-ethyl-N-((3-oxoquinuclidin-2-yl)methyl)acetamide] | 3.2 | 
3 | O=C1C2CCN(CC2)C1CNC(=O)C(Cl)(Cl)Cl (racemic) [Example 2, 2,2,2-trichloro-N-((3-oxoquinuclidin-2-yl)methyl)acetamide] | 6.9 | 
4 | CCN(CC1C(=O)C2CCN1CC2)C(=O)C(F)(F)F (racemic) [Example 3, N-ethyl-2,2,2-trifluoro-N-((3-oxoquinuclidin-2-yl)methyl)acetamide] | 4.2 | 
5 | O=C(NCC1C(=O)C2CCN1CC2)C(F)F (racemic) [Example 5, 2,2-difluoro-N-((3-oxoquinuclidin-2-yl)methyl)acetamide] | 13 | 
6 | O=C1C2CCN(CC2)C1CNS(=O)(=O)c1cccnc1 (racemic) [Example 6, N-((3-oxoquinuclidin-2-yl)methyl)pyridine-3-sulfonamide] | 7.2 | 
7 | O=C1C2CCN(CC2)C1CNS(=O)(=O)c1ccc(F)cc1 (racemic) [Example 7, 4-fluoro-N-((3-oxoquinuclidin-2-yl)methyl)benzenesulfonamide] | 7.2 | 
8 | CCN(CC1C(=O)C2CCN1CC2)S(C)(=O)=O (racemic) [Example 8, N-ethyl-N-((3-oxoquinuclidin-2-yl)methyl)methane-sulfonamide] | 6 | 
9 | CS(=O)(=O)NCC1C(=O)C2CCN1CC2 (racemic) [Example 9, N-((3-oxoquinuclidin-2-yl)methyl)methanesulfon-amide] | 8 | 
10 | O=C1C2CCN(CC2)C1CNS(=O)(=O)c1ccccc1 (racemic) [Example 10, N-((3-oxoquinuclidin-2-yl)methyl)benzenesulfon-amide] | 7.1 | 
11 | CS(=O)(=O)N(CC(N)=O)CC1C(=O)C2CCN1CC2 (racemic) [Example 11, 2-(N-((3-oxoquinuclidin-2-yl)methyl)methylsulfon-amido)acetamide] | 4.1 | 
12 | CS(=O)(=O)N(CC(=O)O)CC1C(=O)C2CCN1CC2 (racemic) [Example 12, N-(methylsulfonyl)-N-((3-oxoquinuclidin-2-yl)-methyl)qlycine] | 6 | 
13 | O=C1C2CCN(CC2)C1CNS(=O)(=O)c1ccncc1 (racemic) [Example 13, N-((3-oxoquinuclidin-2-yl)methyl)pyridine-4-sulfon-amide] | 6.3 | 
14 | O=C1C2CCN(CC2)C1CNS(=O)(=O)c1ccccn1 (racemic) [Example 14, N-((3-oxoquinuclidin-2-yl)methyl)pyridine-2-sulfonamide] | 6 | 
15 | CCN(CC1C(=O)C2CCN1CC2)S(=O)(=O)C(F)(F)F (racemic) [Example 15, N-ethyl-1,1,1-trifluoro-N-((3-oxoquinuclidin-2-yl)-methyl)methanesulfonamide] | 3.5 | 
16 | O=C1C2CCN(CC2)C1CNS(=O)(=O)C(F)(F)F (racemic) [Example 16, 1,1,1-trifluoro-N-((3-oxoquinuclidin-2-yl)methyl)methanesulfonamide] | 2.9 | 
17 | CC(C)S(=O)(=O)NCC1C(=O)C2CCN1CC2 (racemic) [Example 18, N-((3-oxoquinuclidin-2-yl)methyl)propane-2-sulfonamide] | 11 | 
18 | O=C1C2CCN(CC2)C1CNS(=O)(=O)C1CC1 (racemic) [Example 19, N-((3-oxoquinuclidin-2-yl)methyl)cyclopropane-sulfonamide] | 12 | 

Row | Structure (SMILES) | IC50 ([1]; SAOS-2, 72 h) [µM] | other results
19 | CC1(S(=O)(=O)NCC2C(=O)C3CCN2CC3)CC1 (racemic) [Example 20, 1-methyl-N-((3-oxoquinuclidin-2-yl)methyl)cyclo-propane-1-sulfonamide] | 7.4 | 
20 | CS(=O)(=O)N(CC1C(=O)C2CCN1CC2)C1CC1 (racemic) [Example 21, N-cyclopropyl-N-((3-oxoquinuclidin-2-yl)methyl)-methanesulfonamide] | 1.8 | 
21 | CS(=O)(=O)N(CC1C(=O)C2CCN1CC2)c1ccccc1 (racemic) [Example 22, N-((3-oxoquinuclidin-2-yl)methyl)-N-phenyl-methanesulfonamide] | 1.6 | 
22 | O=C1C2CCN(CC2)C1Cn1ccc(=O)[nH]c1=O (racemic) [Example 23, 1-((3-oxoquinuclidin-2-yl)methyl)pyrimidine-2,4(1H,3H)-dione] |  | % Parent remaining at 48 h [2]: 59%; half-life at 0.2 mg/mL ([2]; 1st order kinetics): 67 h; IC50 [1, 3]: 3.2 µM
23 | Cc1cn(CC2C(=O)C3CCN2CC3)c(=O)[nH]c1=O (racemic) [Example 24, 5-methyl-1-((3-oxoquinuclidin-2-yl)methyl)pyrimidine-2,4(1H,3H)-dione] |  | % Parent remaining at 48 h [2]: >95%; half-life at 0.2 mg/mL ([2]; 1st order kinetics): > 630 h; IC50 [1, 3]: 6.5 µM
24 | Cc1cn(CC2C(=O)C3CCN2CC3)c(=O)n(C(=O)OC(C)(C)C)c1=O (racemic) [Example 25, tert-butyl 5-methyl-2,6-dioxo-3-((3-oxoquinuclidin-2-yl)methyl)-3,6-dihydropyrimidine-1(2H)-carboxylate] | 5.3 | 
25 | CNC(=O)c1ncn(CC2C(=O)C3CCN2CC3)n1 (racemic) [Example 27, N-methyl-1-((3-oxoquinuclidin-2-yl)methyl)-1H-1,2,4-triazole-3-carboxamide] | 5 | 
26 | O=C1C2CCN(CC2)C1Cn1cnc(Cl)n1 (racemic) [Example 28, 2-((3-chloro-1H-1,2,4-triazol-1-yl)methyl)quinuclidin-3-one] | 3.1 | 
27 | O=C1C2CCN(CC2)C1Cn1cncn1 (racemic) [Example 30, 2-((1H-1,2,4-triazol-1-yl)methyl)quinuclidin-3-one] | 26 | 
28 | N#Cc1ncn(CC2C(=O)C3CCN2CC3)n1 (racemic) [Example 31, 1-((3-oxoquinuclidin-2-yl)methyl)-1H-1,2,4-triazole-3-carbonitrile] | 2.4 | 
29 | NC(=O)c1ncn(CC2C(=O)C3CCN2CC3)n1 (racemic) [Example 32, 1-((3-oxoquinuclidin-2-yl)methyl)-1H-1,2,4-triazole-3-carboxamide] | 10 | 
30 | CC(=O)NCC1C(=O)C2CCN1CC2 (racemic) [compound 1, N-((3-oxoquinuclidin-2-yl)methyl)acetamide, reference compound] | > 40 | 
31 | O=C(NCC1C(=O)C2CCN1CC2)c1cccnc1 (racemic) [compound 2, N-((3-oxoquinuclidin-2-yl)methyl)nicotinamide, reference compound] | > 40 | 
32 | O=C1C2CCN(CC2)C1Cn1cccn1 (racemic) [compound 4, 2-((1H-pyrazol-1-yl)methyl)quinuclidin-3-one, reference compound] | > 40 | 
33 | CN(C)C(=O)c1ncn(CC2C(=O)C3CCN2CC3)n1 (single isomer, unassigned) [Example 29, N,N-dimethyl-1-((3-oxoquinuclidin-2-yl)methyl)-1H-1,2,4-triazole-3-carboxamide] | 8.8 | 
34 | O=C1C2CCN(CC2)C1Cn1cc(F)c(=O)[nH]c1=O (stereo not shown) [Comparative example 3, 5-fluoro-1-((3-oxoquinuclidin-2-yl)methyl)pyrimidine-2,4(H,3H)-dione, reference compound] |  | Half-life ([2]; 1st order kinetics): 15 h; % Parent remaining at 48 h [2]: 18%
35 | CS(=O)(=O)N(CC1C(=O)C2CCN1CC2)CC1C(=O)C2CCN1CC2 (stereo not shown) [Example 17, N,N-bis((3-oxoquinuclidin-2-yl)methyl)methanesulfonamide] | 2.9 | 
36 | Cc1cn(CC2C(=O)C3CCN2CC3)c(=O)n(CC2C(=O)C3CCN2CC3)c1=O (stereo not shown) [Example 26, 5-methyl-1,3-bis((3-oxoquinuclidin-2-yl)methyl)-pyrimidine-2,4(1H,3H)-dione] |  | % Parent remaining at 48 h [2]: 73%; half-life at 0.2 mg/mL ([2]; 1st order kinetics): 70 h; IC50 [1, 3]: 4 µM
